In patent US5523315A, “N-(hydroxyethyl)butanediamide derivatives” (Bio-Mega/Boehringer Ingelheim Research Inc., priority 1993, dated 1996):

Biological target: T1, human renin (Homo sapiens, UniProt P00797)
T1 construct: A human plasma pool is used as the source of both the substrate (angiotensinogen) and the enzyme (renin); from tissue; host or cells: pooled human plasma
T1 sequence (P00797 67-406): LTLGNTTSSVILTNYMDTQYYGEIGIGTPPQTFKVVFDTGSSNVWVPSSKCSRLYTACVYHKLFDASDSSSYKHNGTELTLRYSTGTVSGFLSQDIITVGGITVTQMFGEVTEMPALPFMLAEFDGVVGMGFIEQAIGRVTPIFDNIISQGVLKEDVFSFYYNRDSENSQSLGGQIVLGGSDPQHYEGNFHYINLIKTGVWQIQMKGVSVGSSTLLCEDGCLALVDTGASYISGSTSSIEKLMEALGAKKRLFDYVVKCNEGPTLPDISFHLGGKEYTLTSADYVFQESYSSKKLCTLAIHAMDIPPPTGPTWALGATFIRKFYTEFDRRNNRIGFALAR
Experiment: plasma renin assay (inhibition of human renin; angiotensin I generated, measured by radioimmunoassay)
Type: biochemical
Conditions: human plasma pool, pH 6.0, 2 h incubation at 37°
Procedure, shortened: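 Pooled human plasma supplies both renin and angiotensinogen; inhibitor in MES/1% HSA buffer (1% DMSO final) incubated 2 h at 37° at pH 6.0. Angiotensin I generated quantified by radioimmunoassay, inhibition relative to no-inhibitor control, IC50 by nonlinear regression.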

IC50: 5 nM
SMILES: CC(C)C[C@H](O)[C@H](O)[C@H](CC1CCCCC1)NC(=O)[C@@H](CC(=O)N(CC(=O)C(C)C)CC1CCCCC1)Cc1csc(N)n1 [Compound 63, N^4-(cyclohexylmethyl)-N^4-(3-methyl-2-oxobutyl)-N^1-[1(S)-(cyclohexylmethyl)-2(R),3(S)-dihydroxy-5-methylhexyl]-2(R)-[(2-amino-4-thiazolyl)methyl]butanediamide]
